row,melting point [°C],Structure (SMILES)
1,115 to 116,COC(=O)c1ccccc1SC1=C(O)CC(CCC(C)C)(c2ccccc2)OC1=O (centres undefined)
2,76.9 to 78.6,CCOC(=O)c1cn(CCc2ccccc2)nc1N
3,199 to 201,CCCCOc1cc(C(=O)N(C)C)cc(S(N)(=O)=O)c1Cc1ccccc1
4,115,Cc1ccc(Cl)cc1NC(=S)n1c(C)c(C)c2ccccc21
5,104 to 106,O=C(NCCO)c1ccc(CCCc2ccccc2CCc2ccccc2)cc1
6,199 to 201,Cc1cc(SC2=C(O)CC(CCc3ccc(O)cc3)(c3ccccc3)OC2=O)c(C(C)(C)C)cc1CO (centres undefined)
7,138 to 140,C=CCOc1ccc(S(=O)(=O)c2ccc(C)nc2Nc2c(C)cc(C)cc2C)cc1
8,236,CC1CCCN(CC(C)N2c3ccccc3Sc3ccc(C(N)=S)cc32)C1 (mixture of isomers)
9,252,Cn1cc(-c2cc(-c3cnc4[nH]ccc4c3)ccn2)n(-c2ccc(CC#N)cc2)c1=O
10,102 to 105,CCCCCCOc1cccc(C[C@H](NC(C)=O)[C@H](O)CNCc2cccc(CC)c2)c1
11,103 to 105,CC(=O)N1c2c(ccn3c(C)c(C)nc23)[C@@H](O)[C@H](OC(=O)C(C)(C)C)[C@H]1c1ccccc1
12,77 to 78,Cc1ccc(C(=O)c2cccc(C)c2N)cc1
13,224 to 226,COc1ccc(CS(=O)(=O)c2cc3cc(Cl)ccc3oc2=O)cc1
14,32 to 35,CCN(CC)CCOc1ccc(-c2nnc(CSCCOc3ccccc3)o2)cc1
15,123 to 124,COC(=O)c1ccc(NC(=O)c2cc(C(C)C)c(C(C)C)o2)cc1Cl
16,132 to 133,CCCc1ncc(C(=O)OCC)c(NCc2ccc(-c3ccccc3-c3nnnn3C(c3ccccc3)(c3ccccc3)c3ccccc3)cc2)n1

row,melting point [°C],Structure (SMILES)
1,117 to 120,CCc1nc2c(C)cc(C)nc2n1Cc1ccc(C(c2ccccc2)C(C)C(=O)NS(C)(=O)=O)cc1 (centres undefined)
2,148 to 149,Cc1c(C)c2c(c(C)c1O)CCC(C)(COc1ccc(CC(Cl)C(=O)O)cc1)O2 (centres undefined)
3,195 to 196,COC(=O)c1cc(N)c(Oc2cc(C)cc(C)c2)c(S(N)(=O)=O)c1
4,173,CCOCCOCCn1ccc2c3c(c(-c4ccccc4Cl)cc21)C(=O)NC3=O
5,145 to 146,CC(O)(CNc1ccc(S(=O)(=O)c2ccccc2)cc1)C(F)(F)F (centres undefined)
6,158 to 164,O=C(O)CCC(=O)N1CCN2C(=O)OC(c3ccccc3)(c3ccccc3)C2C1 (centres undefined)
7,103 to 108,CNC(=O)C(=NOC)c1ccccc1COc1ccc(Cl)c(C(=O)OC(C)(C)C)n1
8,87.5 to 92.5,COc1cccc(NC(=O)Nc2nc3nc(NCCCN4CCN(C)CC4)ncc3cc2-c2c(Cl)cccc2Cl)c1
9,207 to 208,CSc1cccc(-c2nc(=O)c3ccccc3s2)n1
10,200 to 205,CN1CCN(c2cc(Cl)cc3c2c(=O)n(Cc2cccc([N+](=O)[O-])c2)c(=O)n3Cc2ccccc2)CC1
11,87 to 89,OCCCc1cc(Cl)cc2nc(Cc3ccccc3Cl)oc12
12,223,Cc1nc(C(F)(F)F)ccc1/C=C/C(=O)Nc1ccc2cc[nH]c2c1
13,130,CCCc1cc(C(O)(CC)CC)ccc1-c1cc(O)ccc1CC
14,207 to 208,O=C1CCCc2c1c1cc(Cl)ccc1n2Cc1ccc(F)cc1
15,250 to 251,O=c1c2cc3ncn(CCc4cccc(F)c4)c(=O)c3cc2ncn1CCc1cccc(F)c1
16,166 to 167,Cc1c(NC(=O)c2ccc(OC[C@@H]3CCCO3)cc2)ccc2[nH]c(CNCC3CCOCC3)cc12

# The remaining lines, values behind:
row,Structure (SMILES),melting point [°C]
1,Cc1cc(N)cc(C)c1S(=O)(=O)NCCSCCN,150 to 160
2,O=C1CCCNC12CCCCC2,55
3,CCCCCCCCCCC[C@H](O)C[C@@H]1OC(=O)[C@H]1CCCCCC,61 to 62
4,O=C1c2ccccc2CCc2cc(Br)ccc21,94 to 96
5,COc1cccc(N(C)C)c1C(=O)NC(=O)Nc1cccc(C(F)(F)F)c1,180
6,CC(=O)Nc1ccc(C=O)c(C)c1C#N,170 to 173
7,Nn1cnc2cc(C(F)(F)F)ccc21,140 to 142
8,CCCCCCCCN(c1c([O-])[c+](N(CCCCCCCC)C2CC(C)(C)NC(C)(C)C2)[c+]1[O-])C1CC(C)(C)NC(C)(C)C1,171 to 175
9,COc1cc2c(Oc3ccc4[nH]cc(C)c4c3)ncnc2cc1OCCCN1CCCC1,75 to 77
10,O=C(Nc1cc(N2CCNCC2)cc(C(F)(F)F)c1)c1cccc2cc(Oc3ccnc(NC(=O)C4CC4)c3)ccc12,244 to 247
11,CC(C#CC1=C(C)C(O)C(O)CC1(C)C)=CCO (centres undefined),115 to 117
12,CCCCCCCCCCCCCCOc1cc(OCCCCCCc2cccc(O)c2O)cc(C(=O)O)c1,92 to 94
13,COc1ccc(C2=NNC(=O)[C@H]3CC=CC[C@@H]23)cc1Cl (relative stereo),183 to 185
14,COc1cc(OCC2CCCO2)ccc1/C=C/C(=O)CC(=O)/C=C/c1ccc2cc[nH]c2c1 (centres undefined),159 to 161
15,C=C1CC2C(CCC3(C)C2CCC3(O)C(C)=O)C2(C)CCC(=O)C=C12 (centres undefined),218 to 220
16,CN1CCC(=C2c3cc(Br)ccc3CC(=O)c3sccc32)CC1,172 to 173
17,Cc1cscc1NC(=S)NC1CCCCC1N (centres undefined),205 to 210
18,CN1CCCN=C1C(Cl)(Cl)[N+](=O)[O-],92 to 93
19,N#CCN1C(=O)C2(COc3cc4c(cc32)OCO4)c2ccccc21 (centres undefined),170 to 172

row,Structure (SMILES),melting point [°C]
1,CC(C)(C)[C@@H](NC(=O)c1cc(Cl)cc(Cl)c1)NC1C(=O)C(=O)C1Nc1cccnc1Cl (some centres undefined),233 to 234
2,CCCCCCCCCCCCCCCCC#CCBr,34 to 35
3,CC(=O)OCC1OC(n2c(Cl)c(C#N)c3cc(Cl)c(Cl)cc32)C(O)C1O (centres undefined),103 to 104
4,COC(=O)c1c(C(=O)OC)c(-c2ccc(OC)cc2)c2cc3c(cc2c1O)OCO3,169 to 171
5,Cc1ccc(C(=O)Nc2cn(C3CCCCO3)nc2C(=O)NCCC#N)cn1 (centres undefined),118 to 120
6,O=C1c2cccc(NC(=S)Nc3cccc4c3C3CC5(CCN3C4=O)SCCS5)c2C2CC3(CCN12)SCCS3 (centres undefined),188
7,O=C(O)c1cn(-c2cnsn2)c2nc(Cl)c(F)cc2c1=O,222 to 223
8,CC1(C)Oc2ccc(C#N)cc2C(Sc2ccccn2)C1O (centres undefined),101 to 103
9,O=C(O)C1=Cc2cc(I)cc(I)c2OC1C(F)(F)F (centres undefined),243 to 244
10,FC(F)(F)c1ccccc1-c1cccc(C=NNC(=S)NN2CCCC2)n1,142 to 146
11,COCc1nccc(SCCCSc2ccc3ncc([N+](=O)[O-])n3n2)c1C,107 to 110
12,CC1C(=O)NCCN1C(=O)C(Cl)Cl (centres undefined),167 to 168
13,CN(C(=O)c1cnn(C)c1C(=O)Nc1ccc2nc(-c3cccnc3)nn2c1)C1CC1,237
14,CN(C)C=Nc1c(Cl)cc(N=Cc2cccc(C(F)(F)F)c2)cc1Cl,62 to 64
15,CCCCCC1=NN(C(=O)NC2C3CC4CC(C3)CC2C4)CC1c1ccccc1 (centres undefined),71
16,CCCCCCCCNC(=O)CP(=O)(O)O,142 to 143
17,NC(=S)c1ncccc1O,150 to 151
18,CCCCC1(C2CCCC2)Cc2cc(OC)c(Cl)c(Cl)c2C1=O (centres undefined),122 to 123

# — a melting point compilation (Tetko et al.; mined from patent text by program, amines drawn as free bases though some values may be those of a salt)
